Assay results reported in PubChem BioAssay AID222 (DTP/NCI, 2004).
Where “and” joins values, the source holds several entries; their conditions need not be identical. Identical values can stand only once. Inconclusive results and toxic doses are left out.

Tested on: C57BL/6 mice, intracerebral ependymoblastoma, median survival T/C
Assay: NCI In Vivo Anticancer Drug Screen. Data for tumor model Ependymoblastoma (intracerebral) in C57BL/6 mice
Conditions: endpoint: median survival time, higher = longer survival
Protocol: The antitumor activity of compounds was measured in mice bearing transplantable tumors. Survival or tumor size were measured and the results are expressed as the measurement made in the treated group (T) divided by the measurement made in the vehicle treated control group (C). The tumor model used in this assay is Ependymoblastoma (intracerebral) in C57BL/6 mice

How did the T/C (dose: 0.12 mg/kg/injection, schedule: Q03HX024 (ip), vehicle: saline) turn out when `OC(C1CO1)C(O)C1CO1` (stereo not given) was run?
Its T/C is 108 % of control.

And the T/C (dose: 0.25 mg/kg/injection, schedule: Q01DX001 (ip), vehicle: saline)?
The T/C was 102 % of control.

What about the T/C (dose: 0.25 mg/kg/injection, schedule: Q01DX005 (ip), vehicle: saline) of the same compound?
The T/C was 112 % of control.

What about the T/C (dose: 0.25 mg/kg/injection, schedule: Q01DX005 (oral), vehicle: saline) of the same compound?
The T/C was 111 % of control.

And the T/C (dose: 0.25 mg/kg/injection, schedule: Q01DX009 (ip), vehicle: saline)?
Its T/C is 101 % of control.

And the T/C (dose: 0.25 mg/kg/injection, schedule: Q03HX008 (ip), vehicle: saline)?
The T/C was 110 % of control.

What about the T/C (dose: 0.25 mg/kg/injection, schedule: Q03HX016 (ip), vehicle: saline) of the same compound?
The T/C was 103 % of control.

And the T/C (dose: 0.25 mg/kg/injection, schedule: Q03HX024 (ip), vehicle: saline)?
The T/C was 99 % of control.

And the T/C (dose: 0.5 mg/kg/injection, schedule: Q01DX001 (ip), vehicle: saline)?
The T/C was 112 % of control.

What about the T/C (dose: 0.5 mg/kg/injection, schedule: Q01DX001 (oral), vehicle: saline) of the same compound?
Its T/C is 101 % of control.

And the T/C (dose: 0.5 mg/kg/injection, schedule: Q01DX005 (ip), vehicle: clinical formulation)?
The T/C was 104 % of control.

What about the T/C (dose: 0.5 mg/kg/injection, schedule: Q01DX005 (oral), vehicle: saline) of the same compound?
The T/C was 110 % of control.

And the T/C (dose: 0.5 mg/kg/injection, schedule: Q01DX009 (ip), vehicle: saline)?
The T/C was 108 % of control.

And the T/C (dose: 0.5 mg/kg/injection, schedule: Q03HX008 (ip), vehicle: saline)?
The T/C was 123 % of control.

What about the T/C (dose: 0.5 mg/kg/injection, schedule: Q03HX016 (ip), vehicle: saline) of the same compound?
Its T/C is 107 % of control.

What about the T/C (dose: 0.5 mg/kg/injection, schedule: Q03HX024 (ip), vehicle: saline) of the same compound?
Its T/C is 98 % of control.

And the T/C (dose: 0.5 mg/kg/injection, schedule: Q## X006 (ip), vehicle: clinical formulation)?
The T/C was 107 % of control.

What about the T/C (dose: 1.0 mg/kg/injection, schedule: Q01DX001 (ip), vehicle: saline) of the same compound?
Its T/C is 95 % of control and 107 % of control.

What about the T/C (dose: 1.0 mg/kg/injection, schedule: Q01DX001 (oral), vehicle: saline) of the same compound?
The T/C was 108 % of control.

And the T/C (dose: 1.0 mg/kg/injection, schedule: Q01DX005 (ip), vehicle: clinical formulation)?
The T/C was 116 % of control.

What about the T/C (dose: 1.0 mg/kg/injection, schedule: Q01DX005 (oral), vehicle: saline) of the same compound?
The T/C was 106 % of control.

And the T/C (dose: 1.0 mg/kg/injection, schedule: Q01DX009 (ip), vehicle: saline)?
Its T/C is 109 % of control.

And the T/C (dose: 1.0 mg/kg/injection, schedule: Q03HX016 (ip), vehicle: saline)?
The T/C was 113 % of control.

What about the T/C (dose: 1.0 mg/kg/injection, schedule: Q03HX024 (ip), vehicle: saline) of the same compound?
The T/C was 94 % of control.

And the T/C (dose: 1.0 mg/kg/injection, schedule: Q04DX003 (ip), vehicle: saline)?
Its T/C is 100 % of control.

What about the T/C (dose: 1.0 mg/kg/injection, schedule: Q08DX002 (ip), vehicle: saline) of the same compound?
Its T/C is 108 % of control.

And the T/C (dose: 1.0 mg/kg/injection, schedule: Q## X006 (ip), vehicle: clinical formulation)?
Its T/C is 108 % of control.

What about the T/C (dose: 1.0 mg/kg/injection, schedule: Q#A X002 (ip), vehicle: clinical formulation) of the same compound?
Its T/C is 104 % of control.

And the T/C (dose: 1.25 mg/kg/injection, schedule: Q01DX005 (ip), vehicle: saline)?
The T/C was 365 % of control.

What about the T/C (dose: 2.0 mg/kg/injection, schedule: Q01DX001 (ip), vehicle: clinical formulation) of the same compound?
Its T/C is 91 % of control and 96 % of control and 107 % of control.

What about the T/C (dose: 2.0 mg/kg/injection, schedule: Q01DX001 (ip), vehicle: saline) of the same compound?
Its T/C is 94 % of control and 100 % of control and 113 % of control.

What about the T/C (dose: 2.0 mg/kg/injection, schedule: Q01DX001 (oral), vehicle: saline) of the same compound?
Its T/C is 108 % of control.

And the T/C (dose: 2.0 mg/kg/injection, schedule: Q01DX005 (ip), vehicle: clinical formulation)?
Its T/C is 115 % of control.

And the T/C (dose: 2.0 mg/kg/injection, schedule: Q01DX005 (oral), vehicle: clinical formulation)?
Its T/C is 106 % of control.

What about the T/C (dose: 2.0 mg/kg/injection, schedule: Q01DX005 (oral), vehicle: saline) of the same compound?
The T/C was 118 % of control.

And the T/C (dose: 2.0 mg/kg/injection, schedule: Q01DX009 (ip), vehicle: saline)?
Its T/C is 113 % of control.

What about the T/C (dose: 2.0 mg/kg/injection, schedule: Q03HX016 (ip), vehicle: saline) of the same compound?
Its T/C is 118 % of control.

What about the T/C (dose: 2.0 mg/kg/injection, schedule: Q03HX024 (ip), vehicle: saline) of the same compound?
Its T/C is 105 % of control.

What about the T/C (dose: 2.0 mg/kg/injection, schedule: Q04DX003 (ip), vehicle: saline) of the same compound?
The T/C was 105 % of control.

What about the T/C (dose: 2.0 mg/kg/injection, schedule: Q08DX002 (ip), vehicle: saline) of the same compound?
Its T/C is 102 % of control.
